Assay results from patent publication US5081131A, “Omega-((hetero)alkyl)benz(cd)-indol-2-amines” (American Cyanamid Company, priority 1988, dated 1992).
Where a name gives a salt, the structure may show the parent alone.

Experiments:
[1] = molecular target: T1, thromboxane synthetase enzyme (Rattus norvegicus, UniProt P49430); assay: Thromboxane synthetase enzyme inhibition (TXB2 formation in washed platelets, RIA); type: cell-based, spontaneously hypertensive rat; details: 1×10^-4 Molar, SHR platelets, 10 min at 37° C.; for inhibition at 100 µM: read-out: % Inhibition (Thromboxane Synthetase Enzyme Inhibition)
T1 construct: endogenous in cells; host or cells: washed platelets from arterial blood of male Okamoto-Aoki spontaneously hypertensive rats (animals from Taconic Farms, Germantown, N.Y.)
T1 sequence (P49430 1-533): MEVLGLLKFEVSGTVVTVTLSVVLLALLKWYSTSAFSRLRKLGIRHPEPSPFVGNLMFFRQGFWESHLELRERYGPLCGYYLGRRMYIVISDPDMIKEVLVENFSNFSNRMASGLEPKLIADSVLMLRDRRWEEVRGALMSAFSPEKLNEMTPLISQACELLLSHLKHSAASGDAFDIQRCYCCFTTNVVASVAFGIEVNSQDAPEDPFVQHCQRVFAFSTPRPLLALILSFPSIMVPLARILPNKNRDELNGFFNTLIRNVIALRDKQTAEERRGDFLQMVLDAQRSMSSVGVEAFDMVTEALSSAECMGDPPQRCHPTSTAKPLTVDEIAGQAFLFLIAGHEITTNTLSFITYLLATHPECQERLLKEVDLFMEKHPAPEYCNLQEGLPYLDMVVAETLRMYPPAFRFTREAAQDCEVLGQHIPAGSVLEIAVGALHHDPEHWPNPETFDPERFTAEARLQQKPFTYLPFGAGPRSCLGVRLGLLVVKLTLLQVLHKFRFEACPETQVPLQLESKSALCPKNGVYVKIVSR
Method: The blood was diluted with 3 ml cold saline and centrifuged at room temperature for 15 min at 468×g. The platelet rich plasma (PRP) was separated. The platelets were isolated by certrifuging the PRP for 10 minutes at 1060×g and washed in 4 ml cold oxygenated Krebs phosphate buffer, pH 7.4. The chilled platelets recovered from centrifuging at 800×g for 10 minutes were resuspended in oxygenated Krebs phosphate buffer and diluted to contain 4.0-6.0×10^4 platelets/micro-liters. The inhibition of TX formation was studied by determining the concentration of thromboxane B2 (TXB2), the stable hydrolysis product of TXA2. Assay samples prepared on ice, contained 200 micro-liters platelet suspension, 50 micro-liters saline, and 50 micro-liters […] (saline) or drug under study. The test drug (0.003 mole) was dissolved in 5 ml of saline. […] The assay samples were incubated for 10 minutes at 37° C. in a metabolic shaker at about 60 rpm. The reaction was terminated by immersing the tubes in an ice bath and adding 50 micro-liters of 0.5M citric acid. The samples were centrifuged for 10 minutes at 2000 rpm at 4° C., and the supernatants were decanted.

[2] = tested on: spontaneously hypertensive rats; assay: Hypotensive activity in spontaneously hypertensive rats (MABP); type: in vivo, rat (Okamoto strain); details: SHR, gavage, two doses of 10 mg/kg or less 24 h apart, MABP at 28 h; average baseline 160±1.5 mm Hg
Method: The novel compounds of the present invention are active hypotensive agents and were tested for hypotensive activity by the method of P. S. Chan and D. Poorvin, Clinical and Experimental Hypertension, 1 (6), 817-830 (1979). Male, 16 week old, spontaneously hypertensive rats of the Okamoto strain, from Taconic Farms, Germantown, N.Y., having an average mean arterial blood pressure of 160±1.5 mm of mercury, were used in the test. One to 4 rats were used per test compound. A rat was dosed by gavage with a test compound, suspended in 2% pre-boiled starch at a concentration of 50 mg/ml, at a doses of 10 mg/kg of body weight or less, with 0.9% sodium chloride loading at a dose of 25 ml/kg of body weight. A second identical dose of the test compound, without sodium chloride loading was given 24 hours later. At 28 hours after initial dose the mean arterial blood pressure (MABP) was measured. The procedure was repeated in a second and third rat when necessary.

inhibition at 100 µM [1] [%]	% Inhibition (Thromboxane Synthetase Enzyme Inhibition) [1] [%]	SMILES	Avg. MABP in mm Hg (No. of Rats) [2] [mm Hg]
93	–	O=S(=O)(c1ccccc1)N(CCCn1ccnc1)C1=Nc2cccc3cccc1c23 [N-Benz(cd)indol-2-yl-N-(3-(1H-imidazol-1-yl)propyl)benzenesulfonamide]	135
94.5	–	O=C(c1ccccc1)N(CCCn1ccnc1)C1=Nc2cccc3cccc1c23 [N-Benz(cd)indol-2-yl-N-(3-(1H-imidazol-1-yl)propyl)benzamide]	95
89	–	c1ccc(CCCCNC2=Nc3cccc4cccc2c34)nc1 [N-(4-(2-Pyridinyl)butyl)benz(cd)indol-2-amine, sesqui-fumarate]	106
97	–	c1cc2c3c(cccc3c1)C(NCCCCCCCCCCCCn1ccnc1)=N2 [N-(12-(1H-imidazol-1-yl)dodecyl)benz(cd)indol-2-amine]	133
100	–	Cl.Cl.c1cc2c3c(cccc3c1)C(NCCCCCCCCn1ccnc1)=N2 [N-(8-(1H-imidazol-1-yl)octyl)benz(cd)indol-2-amine, dihydrochloride]	111
98	–	Brc1ccc2c3c(cccc13)C(NCCCCn1ccnc1)=N2 [6-Bromo-N-(4-(1H-imidazol-1-yl)butyl)benz(cd)indol-2-amine]	120
100	–	CC(CCNC1=Nc2cccc3cccc1c23)CCn1ccnc1 (stereo not drawn) [N-(5-(1H-imidazol-1-yl)-3-methylpentyl)benz(cd)indol-2-amine,dihydrochloride]	92
88	–	c1cc2c3c(cccc3c1)C(NCCc1ccncc1)=N2 [N-(2-(4-Pyridinyl)ethyl)benz(cd)indol-2-amine, sesqui-fumarate]	115
93	–	Clc1cc(Cl)c2cccc3c2c1N=C3NCCCCc1cccnc1 [6,8-Dichloro-N-(4-(3-pyridinyl)butyl)benz(cd)indol-2-amine]	102
96	–	Clc1cc(Cl)c2cccc3c2c1N=C3NCCCCCCCCCCn1ccnc1 [6,8-Dichloro-N-(10-(1H-imidazol-1-yl)decyl)benz(cd)indol-2-amine]	121
96	–	CC(CCNC1=Nc2cccc3cccc1c23)c1cccnc1 (stereo not drawn) [N-(3-(3-Pyridinyl)butyl)benz(cd)indol-2-amine]	110
–	60	c1cc2c3c(cccc3c1)C(NCCCn1cnc3ccccc31)=N2 [N-(3-(1H-benzimidazol-1-yl)propyl)benz(cd)indol-2-amine]	124
95	–	CC(=O)N(CCCc1cccnc1)C1=Nc2cccc3cccc1c23 [N-Benz(cd)indol-2-yl-N-(3-(3-pyridinyl)propyl)acetamide]	85
99	–	Clc1cc(Cl)c2cccc3c2c1N=C3NCCCCn1ccnc1 [6,8-Dichloro-N-(4-(1H-imidazol-1-yl)butyl)benz(cd)indol-2-amine]	115
90	–	Brc1ccc2c3c(cccc13)C(NCCCCCCCCCCCCn1ccnc1)=N2 [6-Bromo-N-(12-(1H-imidazol-1-yl)dodecyl)benz(cd)indol-2-amine]	128
97	–	C(=C/Cn1ccnc1)/CNC1=Nc2cccc3cccc1c23.Cl.Cl [(Z)-N-(4-(1H-imidazol-1-yl)-2-butenyl)benz(cd)indol-2-amine, dihydrochloride]	77
97	–	c1cc2c3c(cccc3c1)C(NCc1ccncc1)=N2 [N-(4-Pyridinylmethyl)benz(cd)indol-2-amine, sesqui-fumarate]	90
92	–	CC(CCNC1=Nc2cccc3cccc1c23)n1ccnc1 (stereo not drawn) [N-(3-(1H-imidazol-l-yl)butyl)benz(cd) indol-2-amine, dihydrochloride]	104
–	100	C(=C/Cn1ccnc1)/CNC1=Nc2cccc3cccc1c23 [(Z)-N-(4-(1H-imidazol-1-yl)-2-butenyl)benz(cd)indol-2-amine, hydriodide]	106
98.5	–	CC(=O)N(CCCCn1ccnc1)C1=Nc2cccc3cccc1c23 [N-Benz(cd)indol-2-yl-N-(4-(1H-imidazol-1-yl)butyl)acetamide]	81
97	–	Clc1cc(Cl)c2cccc3c2c1N=C3NCCCn1ccnc1 [6,8-Dichloro-N-(3-(1H-imidazol-1-yl)propyl)benz(cd)indol-2-amine]	102
90	–	Cn1cccc1CCNC1=Nc2cccc3cccc1c23 [N-(2-(1-Methyl-1H-pyrrol-2-yl)ethyl)benz(cd)indol-2-amine, fumarate]	–
96	–	O=C(c1ccc(Cl)cc1)N(CCCCn1ccnc1)C1=Nc2cccc3cccc1c23 [N-Benz(cd)indol-2-yl-4-chloro-N-(4-(1-imidazol-1-yl)butylbenzamide]	–
95	–	CCC(=O)N(CCC(C)n1ccnc1)C1=Nc2cccc3cccc1c23 (stereo not drawn) [N-Benz(cd)indol-2-yl-N-(3-(1H-imidazol-1-yl)butyl)propionamide]	–

SMILES	inhibition at 100 µM [1] [%]	% Inhibition (Thromboxane Synthetase Enzyme Inhibition) [1] [%]	Avg. MABP in mm Hg (No. of Rats) [2] [mm Hg]
O=C(O)/C=C/C(=O)O.c1cc2c3c(cccc3c1)C(NCCCCCn1ccnc1)=N2 [N-(5-(1H-imidazol-1-yl)pentyl)benz(cd)indol-2-amine, fumarate]	95	–	111
O=C(O)/C=C/C(=O)O.c1cncc(CCCNC2=Nc3cccc4cccc2c34)c1 [N-(3-(3-Pyridinyl)propyl)benz(cd)indol-2-amine, fumarate]	97	–	93
O=C(O)/C=C/C(=O)O.c1cncc(OCCCNC2=Nc3cccc4cccc2c34)c1 [N-(3-(3-Pyridinyloxy)propyl)benz(cd)indol-2-amine, fumarate]	94	–	116
O=C(O)/C=C/C(=O)O.c1cc2c3c(cccc3c1)C(NCc1ccc(Cn3ccnc3)cc1)=N2 [N-((4-(1H-imidazol-1-ylmethyl)phenyl)methyl)benz(cd)indol-2-amine, fumarate]	100	–	121
CC(CNC1=Nc2cccc3cccc1c23)Cc1cccnc1.O=C(O)/C=C/C(=O)O (stereo not drawn) [N-(2-Methyl-3-(3-pyridinyl)propyl)benz(cd)indol-2-amine, fumarate]	99	–	124
O=C(O)/C=C/C(=O)O.c1csc(CNC2=Nc3cccc4cccc2c34)c1 [N-(2-Thienylmethyl)benz(cd)indol-2-amine, fumarate]	93	–	141
CC(CCCNC1=Nc2cccc3cccc1c23)n1ccnc1.O=C(O)/C=C/C(=O)O (stereo not drawn) [N-(4-(1H-imidazol-1-yl)pentyl)benz(cd)indol-2-amine, fumarate]	99	–	97
O=C(O)/C=C/C(=O)O.c1coc(CNC2=Nc3cccc4cccc2c34)c1 [N-(2-Furanylmethyl)benz(cd)indol-2-amine fumarate]	93	–	142
O=C(O)/C=C/C(=O)O.c1ccc(OCCNC2=Nc3cccc4cccc2c34)nc1 [N-(2-(2-Pyridinyloxy)ethyl)benz(cd)indol-2-amine fumarate]	88	–	140
